System: HCV replicon (HCV 1b-377-neo replicon cells, Huh7)
Experiment: HCV replicon cell-based FRET assay
Details: Hepatitis C virus, Huh-7
Description: HCV Replion assays were utilized in the present invention, and were prepared, conducted and validated as follows:
An HCV replicon whole cell system was established as described by Lohmann V, Korner F, Koch J, Herian U, Theilmann L, Bartenschlager R., Science 285(5424): 110–3 (1999). This system enabled us to evaluate the effects of our HCV Protease compounds on HCV RNA replication. Briefly, using the HCV strain 1B sequence described in the Lohmann paper (Assession number: AJ238799), an HCV cDNA was synthesized by Operon Technologies, Inc. (Alameda, Calif.), and the full-length replicon was then assembled in plasmid pGem9zf(+) (Promega, Madison, Wis.) using standard molecular biology techniques. The replicon consists of (i) the HCV 5′ UTR fused to the first 12 amino acids of the capsid protein, (ii) the neomycin phosphotransferase gene (neo), (iii) the IRES from encephalomyocarditis virus (EMCV), and (iv) HCV NS3 to NS5B genes and the HCV 3′ UTR. Plasmid DNAs were linearized with ScaI and RNA transcripts were synthesized in vitro using the T7 MegaScript transcription kit (Ambion, Austin, Tex.) according to manufacturer's directions. To generate cell lines, 4×10^6 Huh-7 cells (kindly provided by R. Bartenschlager and available from Health Science Research Resources Bank, Japan Health Sciences Foundation) were electroporated (GenePulser System, Bio-Rad) with 10 microgram(“μg”) of RNA transcript and plated into 100-mm dishes. After 24 h, selective media containing 1.0 milligrams/milliliter (“mg/ml”) G418 was added and media was changed every 3 to 5 days. Approximately 4 weeks after electroporation, small colonies were visible which were isolated and expanded for further analysis. These cell lines were maintained at 37° C., 5% CO2, 100% relative humidity in DMEM (Cat# 11965-084) Gibco-BRL, Rockville, Md., with 10% heat inactivated calf serum (Sigma), 10 ml of 100× penicillin/streptomycin (Cat# 15140-122) Gibco-BRL, Rockville, Md., Geneticin (Cat# 10131-027) Gibco-BRL, Rockville, Md. at 1 mg/ml. One of the cell lines (deposited as ATCC Accession No. PTA-4583 in the American Type Culture Collection) which had approximately 3,000 copies of HCV replicon RNA/cell was used for development of the assay (HCV 1b-377-neo replicon cells).
Huh7 cells, constitutively expressing the HCV replicon, were grown in Dulbecco's Modified Eagle Media (DMEM) containing 10% Fetal calf serum (FCS) and 1 mg/ml G418 (Gibco-BRL). Cells were seeded the night before (1.5×10^4 cells/well) in 96-well tissue-culture sterile plates. Compound and no compound controls were prepared in DMEM containing 4% FCS, 1:100 Penicillin/Streptomysin, 1:100 L-glutamine and 5% DMSO in the dilution plate (0.5% DMSO final concentration in the assay). Compound/DMSO mixes were added to the cells and incubated for 4 days at 37° C. After 4 days, cells were first assessed for cytotoxicity using alamar Blue (Trek Diagnotstic Systems) for a CC50 reading. The toxicity of compound (CC50) was determined by adding 1/10th volume of alamar Blue to the media incubating the cells. After 4 hr, the fluorescence signal from each well was read, with an excitation wavelength at 530 nm and an emission wavelength of 580 nm, using the Cytofluor Series 4000 (Perspective Biosystems). Plates were then rinsed thoroughly with Phosphate-Buffered Saline (PBS) (3 times 150 μl). The cells were lysed with 25 μl of a lysis assay reagent containing an HCV protease substrate (5× cell Luciferase cell culture lysis reagent (Promega #E153A) diluted to 1× with distilled water, NaCl added to 150 mM final, the FRET peptide diluted to 10 μM final from a 2 mM stock in 100% DMSO). The HCV protease substrate (FRET peptide; AnaSpec, Inc. cat #22991, described by Taliani et al. in Anal. Biochem. 240(2):60–67 (1996)) contains a fluorescence donor, EDANS, near one end of the peptide and an acceptor, DABCYL, near the other end. […]

Structure (SMILES)	EC50 [nM]
CC1(OC(=O)N[C@H]2CCCCC/C=C\[C@@H]3C[C@@]3(C(=O)NS(=O)(=O)C3CC3)NC(=O)[C@@H]3C[C@@H](Oc4nccc5ccccc45)CN3C2=O)CCC1 [Compound 56, [(Z)-(1S,4R,14S,18R)-4-cyclopropanesulfonylaminocarbonyl-18-(isoquinolin-1-yloxy)-2,15-dioxo-3,16-diaza-tricyclo[14.3.0.0^4,6]nonadec-7-en-14-yl]-carbamic acid 1-methyl-cyclobutyl ester]	< 50
COc1ccc2c(O[C@@H]3C[C@H]4C(=O)N[C@]5(C(=O)O)C[C@H]5/C=C\CCCO[C@H](C)[C@H](NC(=O)OC(C)(C)C)C(=O)N4C3)nccc2c1 [Compound 61]	5000 to 50000
CCCC1(S(=O)(=O)NC(=O)[C@@]23C[C@H]2CCCCCCC[C@H](NC(=O)OC(C)(C)C)C(=O)N2C[C@H](Oc4nccc5ccccc45)C[C@H]2C(=O)N3)CC1 [Compound 7, [18-(Isoquinolin-1-yloxy)-2,15-dioxo-4-(1-propyl-cyclopropanesulfonylaminocarbonyl)-3,16-diaza-tricyclo[14.3.0.0^4,6]nonadec-14-yl]-carbamic acid tert-butyl ester]	< 50
COc1ccc2c(OC3CC4C(=O)NC5(C(=O)NS(=O)(=O)C6(C)CC6)CC5C=CCCCSCC(NC(=O)OC(C)C)C(=O)N4C3)nccc2c1 (stereo not drawn) [Compound 41]	< 50
COc1ccc2c(O[C@@H]3C[C@H]4C(=O)N[C@]5(C(=O)NS(=O)(=O)C6CC6)C[C@H]5/C=C\CCCS(=O)(=O)C[C@H](NC(=O)OC(C)(C)C)C(=O)N4C3)nccc2c1 [Compound 19]	50 to 500
COc1ccc2c(OC3CC4C(=O)NC5(C(=O)NS(=O)(=O)C6(C)CC6)CC5C=CCCCSCC(NC(=O)OCC(C)(C)C)C(=O)N4C3)nccc2c1 (stereo not drawn) [Compound 42]	< 50
CCC1(S(=O)(=O)NC(=O)C23CC2C=CCCCSCC(NC(=O)OCC(C)(C)C)C(=O)N2CC(Oc4nccc5cc(OC)ccc45)CC2C(=O)N3)CC1 (stereo not drawn) [Compound 45]	< 50
CCC1(S(=O)(=O)NC(=O)C23CC2C=CCOCCCC(NC(=O)OC(C)C)C(=O)N2CC(Oc4nccc5cc(OC)ccc45)CC2C(=O)N3)CC1 (stereo not drawn) [Compound 37]	< 50
CCCC1(S(=O)(=O)NC(=O)[C@@]23C[C@H]2/C=C\CCCCC[C@H](NC(=O)OC(C)(C)C)C(=O)N2C[C@H](Oc4nccc5ccccc45)C[C@H]2C(=O)N3)CC1 [Compound 6, [18-(Isoquinolin-1-yloxy)-2,15-dioxo-4-(1-propyl-cyclopropanesulfonylaminocarbonyl)-3,16-diaza-tricyclo[14.3.0.0^4,6]nonadec-7-en-14-yl]-carbamic acid tert-butyl ester]	< 50
CC1(OC(=O)NC2CCCCCC=CC3CC3(C(=O)NS(=O)(=O)C3CC3)NC(=O)C3CC(Oc4nccc5ccccc45)CN3C2=O)CC1 (stereo not drawn) [Compound 59]	< 50
CC(C)(C)OC(=O)NC1CCCCCC=CC2CC2(C(=O)NS(=O)(=O)C2CC2)NC(=O)C2CC(Oc3nc(Cl)cc4ccccc34)CN2C1=O (stereo not drawn) [Compound 57]	< 50
O=C(NC1CCCCCC=CC2CC2(C(=O)NS(=O)(=O)C2CC2)NC(=O)C2CC(Oc3nccc4ccccc34)CN2C1=O)OC1CCCC1 (stereo not drawn) [Compound 20]	< 50
CC(C)(C)OC(=O)N[C@H]1CCCCC/C=C\[C@@H]2C[C@@]2(C(=O)O)NC(=O)[C@@H]2C[C@@H](Oc3nccc4ccccc34)CN2C1=O [Compound 1, 14-tert-Butoxycarbonylamino-18-(isoquinolin-1-yloxy)-2,15-dioxo-3,16-diaza-tricyclo[14.3.0.0^4,6]nonadec-7-ene-4-carboxylic acid]	500 to 5000
CC(=O)NC1CCCCCC=CC2CC2(C(=O)NS(=O)(=O)C2CC2)NC(=O)C2CC(Oc3nccc4ccccc34)CN2C1=O (stereo not drawn) [Compound 26]	50 to 500
CC(C)(C)OC(=O)NC1CSCCCC=CC2CC2(C(=O)NS(=O)(=O)C2CC2)NC(=O)C2CC(Oc3nccc4c(Cl)cccc34)CN2C1=O (stereo not drawn) [Compound 78]	< 50
CC(C)(OC(=O)NC1CCCCCC=CC2CC2(C(=O)NS(=O)(=O)C2CC2)NC(=O)C2CC(Oc3nccc4ccccc34)CN2C1=O)C(F)(F)F (stereo not drawn) [Compound 51]	< 50
CCC1(S(=O)(=O)NC(=O)C23CC2C=CCCCOC(C)C(NC(=O)OCC(C)(C)C)C(=O)N2CC(Oc4nccc5cc(OC)ccc45)CC2C(=O)N3)CC1 (stereo not drawn) [Compound 71]	50 to 500
CCC1(S(=O)(=O)NC(=O)C23CC2C=CCCCOC(C)C(NC(=O)OC(C)C)C(=O)N2CC(Oc4nccc5cc(OC)ccc45)CC2C(=O)N3)CC1 (stereo not drawn) [Compound 72]	50 to 500
COc1ccc2c(OC3CC4C(=O)NC5(C(=O)NS(=O)(=O)C6CC6)CC5C=CCOCCCC(NC(=O)NC(C)(C)C)C(=O)N4C3)nccc2c1 (stereo not drawn) [Compound 34]	< 50
COc1ccc2c(OC3CC4C(=O)NC5(C(=O)NS(=O)(=O)C6(C)CC6)CC5C=CCCCCCC(NC(=O)OC(C)(C)C)C(=O)N4C3)nccc2c1 (stereo not drawn) [Compound 53]	< 50
COc1ccc2c(OC3CC4C(=O)NC5(C(=O)NS(=O)(=O)C6(C)CC6)CC5C=CCOCCCC(NC(=O)OC(C)C)C(=O)N4C3)nccc2c1 (stereo not drawn) [Compound 35]	< 50
CCC1(S(=O)(=O)NC(=O)C23CC2C=CCCCS(=O)(=O)CC(NC(=O)OC(C)(C)C)C(=O)N2CC(Oc4nccc5cc(OC)ccc45)CC2C(=O)N3)CC1 (stereo not drawn) [Compound 48]	50 to 500
COC(=O)N[C@H]1CCCCC/C=C\[C@@H]2C[C@@]2(C(=O)NS(=O)(=O)C2CC2)NC(=O)[C@@H]2C[C@@H](Oc3nccc4ccccc34)CN2C1=O [Compound 12, [4-Cyclopropanesulfonylaminocarbonyl-18-(isoquinolin-1-yloxy)-2,15-dioxo-3,16-diaza-tricyclo[14.3.0.0^4,6]nonadec-7-en-14-yl]-carbamic acid methyl ester]	< 50
COc1ccc2c(OC3CC4C(=O)NC5(C(=O)NS(=O)(=O)C6(C)CC6)CC5C=CCCCOC(C)C(NC(=O)OC(C)C)C(=O)N4C3)nccc2c1 (stereo not drawn) [Compound 68]	50 to 500
COc1ccc2c(OC3CC4C(=O)NC5(C(=O)NS(=O)(=O)C6CC6)CC5C=CCCCSCC(NC(=O)OCC(C)(C)C)C(=O)N4C3)nccc2c1 (stereo not drawn) [Compound 75]	< 50
COc1ccc2c(OC3CC4C(=O)NC5(C(=O)O)CC5C=CCOCCCC(NC(=O)OC(C)(C)C)C(=O)N4C3)nccc2c1 (stereo not drawn) [Compound 27, 14-tert-Butoxycarbonylamino-18-(6-methoxy-isoquinolin-1-yloxy)-2,15-dioxo-10-oxa-3,16-diaza-tricyclo[14.3.0.0^4,6]nonadec-7-ene-4-carboxylic acid]	500 to 5000
COc1c(NC2CCCCCC=CC3CC3(C(=O)NS(=O)(=O)C3CC3)NC(=O)C3CC(Oc4nccc5ccccc45)CN3C2=O)c(=O)c1=O (stereo not drawn) [Compound 21]	50 to 500
CCC1(S(=O)(=O)NC(=O)C23CC2C=CCCCOC(C)C(NC(=O)OC(C)(C)C)C(=O)N2CC(Oc4nccc5cc(OC)ccc45)CC2C(=O)N3)CC1 (stereo not drawn) [Compound 70]	50 to 500
COc1ccc2c(OC3CC4C(=O)NC5(C(=O)NS(=O)(=O)C6(C)CC6)CC5C=CCCCSCC(NC(=O)NC5CCCC5)C(=O)N4C3)nccc2c1 (stereo not drawn) [Compound 43]	< 50
CC(C)(C)OC(=O)N[C@H]1CCCCC/C=C\[C@@H]2C[C@@]2(C(=O)NS(=O)(=O)C2(C)CC2)NC(=O)[C@@H]2C[C@@H](Oc3nccc4ccccc34)CN2C1=O [Compound 8, [18-(Isoquinolin-1-yloxy)-4-(1-methyl-cyclopropanesulfonylaminocarbonyl)-2,15-dioxo-3,16-diaza-tricyclo[14.3.0.0^4,6]nonadec-7-en-14-yl]-carbamic acid tert-butyl ester]	< 50

From patent US7173004B2, “Macrocyclic isoquinoline peptide inhibitors of hepatitis C virus” (Bristol-Myers Squibb Company, priority 2003, dated 2007)
